Measured values reported in patent US9765039B2, “Biaryl derivatives as bromodomain inhibitors” (Zenith Epigenetics Ltd., priority 2012, dated 2017).
Counter-ions that a name gives are not always drawn.

Columns and labels:
Brd4 bromodomain 1 = target: T1, Brd4 bromodomain 1 (Homo sapiens, UniProt O60885); assay: Inhibition of tetra-acetylated histone H4 binding to BET bromodomains (TR-FRET); design: key: Active: Compounds with an IC50 value less than 30 μM were deemed to be active.; Not Active: Compounds with an IC50 value less than 30 μM were deemed to be active; conditions: first bromodomain of Brd4, tetra-acetylated histone H4 peptide
T1 construct: made in house; host or cells: E. coli BL21(DE3)
Procedure: Proteins were cloned and overexpressed with a N-terminal 6×His tag, then purified by nickel affinity followed by size exclusion chromatography. Briefly, E. coli BL21(DE3) cells were transformed with a recombinant expression vector encoding N-terminally Nickel affinity tagged bromodomains from Brd2, Brd3, Brd4. Cell cultures were incubated at 37° C. with shaking to the appropriate density and induced overnight with IPTG. The supernatant of lysed cells was loaded onto Ni-IDA column for purification. Eluted protein was pooled, concentrated and further purified by size exclusion chromatography. Fractions representing monomeric protein were pooled, concentrated, aliquoted, and frozen at −80° C. for use in subsequent experiments.
Binding of tetra-acetylated histone H4 and BET bromodomains was confirmed by a Time Resolved Fluorescence Resonance Energy Transfer (TR-FRET) method. N-terminally His-tagged bromodomains (200 nM) and biotinylated tetra-acetylated histone H4 peptide (25-50 nM, Millipore) were incubated in the presence of Europium Cryptate-labeled streptavidin (Cisbio Cat. #610SAKLB) and XL665-labeled monoclonal anti-His antibody (Cisbio Cat. #61HISXLB) in a white 96 well microtiter plate (Greiner). For inhibition assays, serially diluted test compound was added to these reactions in a 0.2% final concentration of DMSO. Final buffer concentrations were 30 mM HEPES pH 7.4, 30 mM NaCl, 0.3 mM CHAPS, 20 mM phosphate pH 7.0, 320 mM KF, 0.08% BSA). After 2 hours incubation at room temperature, the fluorescence by FRET was measured at 665 and 620 nm by a SynergyH4 plate reader (Biotek). Illustrative results with the first bromodomain of Brd4 are shown below (Table 1). The binding inhibitory activity was shown by a decrease in 665 nm fluorescence relative to 620 nm. IC50 values were determined from a dose response curve.

hIL-6 mRNA = assay: Inhibition of hIL-6 mRNA transcription in LPS-stimulated U937 macrophages; assay type: cell-based, human; design: key: Active: Compounds with an IC50 value less than 30 μM are deemed to be active; conditions: U937 differentiated into macrophages, 1 h pretreatment, lipopolysaccharide 3 h
Procedure: In this example, hIL-6 mRNA in tissue culture cells was quantitated to measure the transcriptional inhibition of hIL-6 when treated with a compound of the present disclosure.
A human leukemic monocyte lymphoma cell line (U937) was plated (3.2×10^4 cells per well) in a 96-well plate in 100 μL RPMI-1640 containing 10% FBS and penicillin/streptomycin, and differentiated into macrophages for 3 days in 60 ng/mL PMA ([…]) at 37° C. in 5% CO2 prior to the addition of the compound of interest. The cells were pretreated for 1 h with the test compound prior to stimulation with […] lipopolysaccharide from Escherichia coli. The cells were incubated at 37° C. for 3 h before the cells were harvested. At time of harvest, the spent media was removed from the cells and the cells were rinsed in 200 μL PBS. Cell lysis solution (70 μL) was added the cells in each well and incubated for 5-10 min at room temperature, to allow for complete cell lysis and detachment. mRNA was then prepared using the “mRNA Catcher PLUS plate” (Invitrogen), according to the protocol supplied. After the last wash, as much wash buffer as possible was aspirated without allowing the wells to dry. Elution buffer (E3, 70 μL) was then added to each well. mRNA was then eluted by incubating the mRNA Catcher PLUS plate with Elution Buffer for 5 min at 68° C. and then immediately placing the plate on ice.
The eluted mRNA isolated was then used in a one-step quantitative real-time PCR reaction, using components of the Ultra Sense Kit together with Applied Biosystems primer-probe mixes. Real-time PCR data was analyzed, normalizing the Ct values for hIL-6 to an internal control, prior to determining the fold induction of each unknown sample, relative to the control.

c-myc = assay: Inhibition of c-myc expression in cancer cell lines (mRNA, real-time PCR); assay type: cell-based; design: key: Active: Compounds with an IC50 value less than 30 μM were deemed to be active; conditions: Human AML MV4-11 cells, 3 hours
Procedure: MV4-11 cells (2.5×10^4 cells) were plated in 96 well U-bottom plates with test compound or DMSO (0.1%), and incubated for 3 hours at 37° C. Cells were then harvested by centrifugation, lysed, and mRNA was isolated using the mRNA catcher plus kit (Invitrogen). Reverse transcription of the mRNA and duplex amplification of the c-myc and cyclophilin cDNAs was performed using the RNA Ultrasense kit (Invitrogen) and a ViiA7 real-time PCR machine (Applied Biosystems). IC50 values were determined from a dose response curve.

Human AML MV-4-11 cells = assay: Inhibition of cell proliferation in cancer cell lines (CellTiter Aqueous One); assay type: cell-based; design: key: Active: Compounds with an IC50 value less than 30 μM were deemed to be active.; Not Active: Compounds with an IC50 value less than 30 μM were deemed to be active; conditions: 72 hours
Procedure: MV4-11 cells: 96-well plates were seeded with 5×10^4 cells per well of exponentially growing human AML MV-4-11 (CRL-9591) cells and immediately treated with two-fold dilutions of test compounds, ranging from 30 μM to 0.2 μM. Triplicate wells were used for each concentration, as well as a media only and three DMSO control wells. The cells and compounds were incubated at 37° C., 5% CO2 for 72 hours before adding 20 μL of the CellTiter Aqueous One Solution (Promega) to each well and incubating at 37° C., 5% CO2 for an additional 3-4 hours. The absorbance was taken at 490 nm in a spectrophotometer and the percentage of proliferation relative to DMSO-treated cells was calculated after correction from the blank well. IC50 were calculated using the GraphPad Prism software.

| SMILES | FRET activity (IC50 < 30 μM) (Brd4 bromodomain 1) | IL-6 activity (IC50 < 30 μM) (hIL-6 mRNA) | melting point | c-myc activity (IC50 < 30 μM) (c-myc) | cell proliferation activity (IC50 < 30 μM) (Human AML MV-4-11 cells) |
| --- | --- | --- | --- | --- | --- |
| COc1cc(OC)c2c(=O)[nH]c(-c3ccc(OCCO)c(-c4ccc(C(C)=O)cc4)n3)nc2c1 [Example 28, 2-(6-(4-Acetylphenyl)-5-(2-hydroxyethoxy)pyridin-2-yl)-5,7-dimethoxyquinazolin-4(3H)-one] | Active | Active | – | – | – |
| COc1cc(OC)c2c(=O)[nH]c(-c3ccc(OCCO)c(-c4ccc(C(C)=O)cc4)n3)nc2c1 (as salt: hydrochloride) [Example 28, 2-(6-(4-Acetylphenyl)-5-(2-hydroxyethoxy)pyridin-2-yl)-5,7-dimethoxyquinazolin-4(3H)-one] | – | – | 232 to 234 °C | – | – |
| COc1cc(OC)c2c(=O)[nH]c(-c3ccc(OCCO)c(-c4cccc(S(C)(=O)=O)c4)n3)nc2c1 (as salt: methanesulfonate) [Example 36, 2-(5-(2-Hydroxyethoxy)-6-(3-(methylsulfonyl)phenyl)pyridin-2-yl)-5,7-dimethoxyquinazolin-4(3H)-one methanesulfonate] | – | – | 218 to 220 °C | – | – |
| COc1ccc2c(=O)[nH]c(-c3ccc(OCCNC(C)C)c(-c4ccc([S+](C)[O-])cc4)n3)nc2c1 (stereo not shown) [Example 66, 2-(5-(2-(Isopropylamino)ethoxy)-6-(4-(methylsulfinyl)phenyl)pyridin-2-yl)-7-methoxyquinazolin-4(3H)-one] | Active | – | – | – | – |
| CN1CC[C@H](Oc2cc(F)cc3nc(-c4cccc(-c5ccc(S(C)(=O)=O)cc5)n4)[nH]c(=O)c23)C1 [Example 7, (S)-7-Fluoro-5-((1-methylpyrrolidin-3-yl)oxy)-2-(6-(4-(methylsulfonyl)phenyl)pyridin-2-yl)quinazolin-4(3H)-one] | Not Active | Not Active | – | – | – |
| CC(C)NCCOc1ccc(-c2nc3ccccc3c(=O)[nH]2)nc1-c1ccc([S+](C)[O-])cc1 (stereo not shown) [Example 65, 2-(5-(2-(Isopropylamino)ethoxy)-6-(4-(methylsulfinyl)phenyl)pyridin-2-yl)quinazolin-4(3H)-one] | Active | Active | – | – | – |
| COc1cc(OC)c2c(=O)[nH]c(-c3ccc(OC4CN(C)C4)c(-c4ccc([S+](C)[O-])cc4)c3)nc2c1 (stereo not shown) [Example 13, 5,7-Dimethoxy-2-(6-(1-methylazetidin-3-yloxy)-4′-(methylsulfinyl)biphenyl-3-yl)quinazolin-4(3H)-one] | Active | Active | – | Active | Active |
| COc1cc(OC)c2c(=O)[nH]c(-c3ccc(OCCO)c(-c4cccc(S(C)(=O)=O)c4)n3)nc2c1 [Example 36, 2-(5-(2-Hydroxyethoxy)-6-(3-(methylsulfonyl)phenyl)pyridin-2-yl)-5,7-dimethoxyquinazolin-4(3H)-one methanesulfonate] | Not Active | Not Active | – | Not Active | Not Active |
| COc1cc(F)cc2nc(-c3ccc(OC4CNC4)c(-c4ccc([S+](C)[O-])cc4)c3)[nH]c(=O)c12 (stereo not shown) [Example 14, 2-(6-(Azetidin-3-yloxy)-4′-(methylsulfinyl)-[1,1′-biphenyl]-3-yl)-7-fluoro-5-methoxyquinazolin-4(3H)-one] | Active | Not Active | – | Not Active | Not Active |

Further lines, results first:

| FRET activity (IC50 < 30 μM) (Brd4 bromodomain 1) | IL-6 activity (IC50 < 30 μM) (hIL-6 mRNA) | melting point | c-myc activity (IC50 < 30 μM) (c-myc) | cell proliferation activity (IC50 < 30 μM) (Human AML MV-4-11 cells) | SMILES |
| --- | --- | --- | --- | --- | --- |
| Not Active | Active | – | Not Active | Active | COc1cc(OC)c2c(=O)[nH]c(-c3cccc(-c4ccc(C(=O)N(C)C)cc4)n3)cc2c1 [Example 8, 4-(6-(6,8-Dimethoxy-1-oxo-1,2-dihydroisoquinolin-3-yl)pyridin-2-yl)-N,N-dimethylbenzamide] |
| Not Active | Active | – | – | – | COc1cc(OC)c2c(=O)[nH]c(-c3cccc(-c4ccc([S+](C)[O-])cc4)n3)cc2c1 (stereo not shown) [Example 10, 6,8-dimethoxy-3-(6-(4-(methylsulfinyl)phenyl)pyridin-2-yl)isoquinolin-1(2H)-one] |
| Not Active | Not Active | – | – | – | COc1cc(OC)c2c(=O)[nH]c(-c3cccc(-c4ccc(S(C)(=O)=O)cc4)n3)cc2c1 [Example 9, 6,8-Dimethoxy-3-(6-(4-(methylsulfonyl)phenyl)pyridin-2-yl)isoquinolin-1(2H)-one] |
| Active | Active | – | Active | Active | COc1cc(OC)c2c(=O)[nH]c(-c3ccc(OCCN(C)C)c(-c4ccc([S+](C)[O-])cc4)c3)nc2c1 (stereo not shown) [Example 11, 2-(6-(2-(Dimethylamino)ethoxy)-4′-(methylsulfinyl)biphenyl-3-yl)-5,7-dimethoxyquinazolin-4(3H)-one] |
| – | Not Active | – | Not Active | Not Active | COc1cc(OC)c2c(=O)[nH]c(-c3ccc(OC4CNC4)c(-c4ccc([S+](C)[O-])cc4)c3)nc2c1 (stereo not shown) [Example 12, 2-(6-(Azetidin-3-yloxy)-4′-(methylsulfinyl)biphenyl-3-yl)-5,7-dimethoxyquinazolin-4(3H)-one] |
| Active | Active | – | Not Active | Not Active | COc1cc(OC)c2c(=O)[nH]c(-c3ccc(OCCO)c(-c4ccc([S+](C)[O-])cc4)c3)nc2c1 (stereo not shown) [Example 16, 2-(6-(2-Hydroxyethoxy)-4′-(methylsulfinyl)biphenyl-3-yl)-5,7-dimethoxyquinazolin-4(3H)-one] |
